Assay results reported in patent publication US20210300940A1 (Merck Patent GmbH, priority 2018, published 2021).

What was measured:
[1] = molecular target: T1, TLR8 (Homo sapiens, UniProt Q9NR97); experiment: HEK/293 TLR8 Cell Assay; format: cell-based; conditions: HEK cells, R848 agonist 30 uM final concentration, Steady-Glo readout; read-out: TLR8 potency
T1 construct: expressed in transfected cells; host or cells: HEK/293 reporter cells (NF-kB luciferase)
T1 sequence (Q9NR97 27-1041): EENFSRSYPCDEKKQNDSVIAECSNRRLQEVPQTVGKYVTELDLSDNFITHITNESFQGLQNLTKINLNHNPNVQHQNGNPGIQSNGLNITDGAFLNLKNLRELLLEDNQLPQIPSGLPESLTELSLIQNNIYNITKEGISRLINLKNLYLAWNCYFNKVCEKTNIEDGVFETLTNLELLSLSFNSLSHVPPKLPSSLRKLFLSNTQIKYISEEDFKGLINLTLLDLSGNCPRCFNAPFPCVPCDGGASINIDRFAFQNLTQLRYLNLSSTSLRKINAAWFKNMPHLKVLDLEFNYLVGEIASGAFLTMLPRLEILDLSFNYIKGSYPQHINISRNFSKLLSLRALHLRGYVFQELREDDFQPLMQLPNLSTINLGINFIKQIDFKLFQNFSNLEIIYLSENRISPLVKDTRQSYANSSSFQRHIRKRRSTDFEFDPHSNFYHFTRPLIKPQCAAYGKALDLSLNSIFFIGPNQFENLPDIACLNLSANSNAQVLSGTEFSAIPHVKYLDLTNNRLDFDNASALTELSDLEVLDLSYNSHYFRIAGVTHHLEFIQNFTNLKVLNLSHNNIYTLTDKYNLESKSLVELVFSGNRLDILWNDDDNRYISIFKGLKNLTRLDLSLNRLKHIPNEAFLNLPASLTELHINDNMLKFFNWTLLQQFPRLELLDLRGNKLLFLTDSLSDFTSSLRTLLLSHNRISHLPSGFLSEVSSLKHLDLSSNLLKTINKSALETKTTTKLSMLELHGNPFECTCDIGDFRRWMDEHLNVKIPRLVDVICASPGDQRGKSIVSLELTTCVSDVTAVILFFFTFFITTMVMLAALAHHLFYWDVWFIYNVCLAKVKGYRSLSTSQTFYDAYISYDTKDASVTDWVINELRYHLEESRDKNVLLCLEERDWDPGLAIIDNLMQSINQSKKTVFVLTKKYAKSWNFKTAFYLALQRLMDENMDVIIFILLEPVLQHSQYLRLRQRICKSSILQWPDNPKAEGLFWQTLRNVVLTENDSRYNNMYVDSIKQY

[2] = molecular target: T2, TLR7 (Homo sapiens, UniProt Q9NYK1); experiment: HEK/293 TLR7 Cell Assay; format: cell-based; conditions: TLR7/NFKb HEK cells, R848 agonist 10 uM final concentration, Steady-Glo readout; read-out: TLR7 potency
T2 construct: expressed in transfected cells; host or cells: HEK/293 cells carrying TLR7 and an NF-kB luciferase reporter
T2 sequence (Q9NYK1 27-1049): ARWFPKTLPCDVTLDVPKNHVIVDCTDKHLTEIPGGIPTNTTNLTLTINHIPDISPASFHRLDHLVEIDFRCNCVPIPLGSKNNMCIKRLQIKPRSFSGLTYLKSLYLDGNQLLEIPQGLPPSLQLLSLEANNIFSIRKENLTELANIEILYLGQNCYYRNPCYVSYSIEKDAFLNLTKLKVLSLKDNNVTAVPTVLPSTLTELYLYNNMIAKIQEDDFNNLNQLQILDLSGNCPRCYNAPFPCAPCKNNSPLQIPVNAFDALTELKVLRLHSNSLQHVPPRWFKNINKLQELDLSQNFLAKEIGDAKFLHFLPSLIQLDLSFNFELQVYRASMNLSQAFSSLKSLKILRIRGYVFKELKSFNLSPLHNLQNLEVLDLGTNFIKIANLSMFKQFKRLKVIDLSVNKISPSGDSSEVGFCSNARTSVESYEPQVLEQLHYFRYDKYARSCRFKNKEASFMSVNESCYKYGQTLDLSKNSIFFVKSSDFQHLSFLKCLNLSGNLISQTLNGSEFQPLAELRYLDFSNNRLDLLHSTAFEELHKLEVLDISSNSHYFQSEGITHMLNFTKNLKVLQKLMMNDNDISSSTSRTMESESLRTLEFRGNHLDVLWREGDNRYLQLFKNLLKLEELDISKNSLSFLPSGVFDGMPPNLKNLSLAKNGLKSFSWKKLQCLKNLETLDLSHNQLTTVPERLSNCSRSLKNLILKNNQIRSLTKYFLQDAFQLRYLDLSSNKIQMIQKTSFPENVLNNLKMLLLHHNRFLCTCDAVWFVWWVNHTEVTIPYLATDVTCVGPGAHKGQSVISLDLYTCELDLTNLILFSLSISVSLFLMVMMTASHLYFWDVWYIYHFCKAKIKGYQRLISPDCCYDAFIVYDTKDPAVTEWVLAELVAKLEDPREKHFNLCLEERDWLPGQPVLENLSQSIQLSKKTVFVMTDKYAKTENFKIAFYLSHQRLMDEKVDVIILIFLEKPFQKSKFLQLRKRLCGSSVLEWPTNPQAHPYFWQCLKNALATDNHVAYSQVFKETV
In short: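 TLR7/NF-κB reporter HEK293 cells, 5000/well, cultured 24 h, then preincubated 30 min with compound before R848 agonist (10 uM final). After 5 h stimulation, Steady-Glo luciferase luminescence read.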

IC50 [1] [nM] | IC50 [2] [nM] | SMILES
< 75 | > 150 | Cc1ccc(N2C[C@@H](C)C[C@@H](n3ccnc3)C2)c2cccnc12 [Example 159, 5-[(3R,5S)-3-(1H-imidazol-1-yl)-5-methylpiperidin-1-yl]-8-methylquinoline]
< 75 | < 75 | Cc1ncc(N2C[C@@H](C)C[C@@H](NC(=O)CC3C4CC3CN(C)C4)C2)c2cccnc12 (stereo partly drawn) [Example 165, 2-(3-Methyl-3-aza-bicyclo[3.1.1]hept-6-yl)-N-[(3R,5S)-5-methyl-1-(8-methyl-naphthyridin-5-yl)-piperidin-3-yl]-acetamide]
< 75 | 75 to 150 | C[C@H]1C[C@@H](NC(=O)CCN)CN(c2ccc(C(F)(F)F)c3ncccc23)C1 [Example 166, 3-Amino-N-[(3R,5S)-5-methyl-1-(8-trifluoromethyl-quinolin-5-yl)-piperidin-3-yl]-propionamide]
< 75 | < 75 | C[C@H]1C[C@@H](NC(=O)[C@H](N)CO)CN(c2ccc(C(F)(F)F)c3ncccc23)C1 [Example 167]
75 to 150 | > 150 | CN[C@@H](CO)C(=O)N[C@@H]1C[C@H](C)CN(c2ccc(C(F)(F)F)c3ncccc23)C1 [Example 168, (S)-3-Hydroxy-2-methylamino-N-[(3R,5S)-5-methyl-1-(8-trifluoromethyl-quinolin-5-yl)-piperidin-3-yl]-propionamide]
< 75 | < 75 | C[C@H]1C[C@@H](NC(=O)[C@@H](N)[C@@H](C)O)CN(c2ccc(C(F)(F)F)c3ncccc23)C1 [Example 169, (2S,3R)-2-Amino-3-hydroxy-N-[(3R,5S)-5-methyl-1-(8-trifluoromethyl-quinolin-5-yl)-piperidin-3-yl]-butyramide]
< 75 | 75 to 150 | C[C@H]1C[C@@H](NC(=O)[C@@H](N)C(C)(C)O)CN(c2ccc(C(F)(F)F)c3ncccc23)C1 [Example 170, (S)-2-Amino-3-hydroxy-3-methyl-N-[(3R,5S)-5-methyl-1-(8-trifluoromethyl-quinolin-5-yl)-piperidin-3-yl]-butyramide]
< 75 | < 75 | C[C@H](N)C(=O)N[C@@H]1C[C@H](C(F)(F)F)CN(c2ccc(C(F)(F)F)c3ncccc23)C1 [Example 171, (S)-2-Amino-N-[(3R,5S)-5-trifluoromethyl-1-(8-trifluoromethyl-quinolin-5-yl)-piperidin-3-yl]-propionamide]
> 150 | 75 to 150 | N[C@H](CO)C(=O)N[C@@H]1C[C@H](C(F)(F)F)CN(c2ccc(C(F)(F)F)c3ncccc23)C1 [Example 172, (R)-2-Amino-3-hydroxy-N-[(3R,5S)-5-trifluoromethyl-1-(8-trifluoromethyl-quinolin-5-yl)-piperidin-3-yl]-propionamide]
< 75 | 75 to 150 | C[C@H]1C[C@@H](NC(=O)[C@@H]2CCCN2)CN(c2ccc(C(F)(F)F)c3ncccc23)C1 [Example 176, (S)-Pyrrolidine-2-carboxylic acid [(3R,5S)-5-methyl-1-(8-trifluoromethyl-quinolin-5-yl)-piperidin-3-yl]-amide]
< 75 | 75 to 150 | C[C@H]1C[C@@H](NC(=O)[C@H]2CCCN2)CN(c2ccc(C(F)(F)F)c3ncccc23)C1 [Example 177, (R)-Pyrrolidine-2-carboxylic acid [(3R,5S)-5-methyl-1-(8-trifluoromethyl-quinolin-5-yl)-piperidin-3-yl]-amide]
< 75 | > 150 | C[C@H]1C[C@@H](NC(=O)[C@@](C)(N)CO)CN(c2ccc(C(F)(F)F)c3ncccc23)C1 [Example 178, (S)-2-Amino-3-hydroxy-2-methyl-N-[(3R,5S)-5-methyl-1-(8-trifluoromethyl-quinolin-5-yl)-piperidin-3-yl]-propionamide]
< 75 | < 75 | C[C@H]1C[C@@H](NC(=O)C2CCNCC2)CN(c2ccc(C(F)(F)F)c3ncccc23)C1 [Example 179, Piperidine-4-carboxylic acid [(3R,5S)-5-methyl-1-(8-trifluoromethyl-quinolin-5-yl)-piperidin-3-yl]-amide]
< 75 | < 75 | C[C@H]1C[C@@H](NC(=O)C2(N)CCCNC2)CN(c2ccc(C(F)(F)F)c3ncccc23)C1 (stereo partly drawn) [Example 180, 3-Amino-piperidine-3-carboxylic acid [(3R,5S)-5-methyl-1-(8-trifluoromethyl-quinolin-5-yl)-piperidin-3-yl]-amide]

SMILES | IC50 [1] [nM] | IC50 [2] [nM]
C[C@H]1C[C@@H](n2ccnc2)CN(c2ccc(C#N)c3ncccc23)C1 [Example 158, 5-[(3R,5S)-3-(1H-imidazol-1-yl)-5-methylpiperidin-1-yl]quinoline-8-carbonitrile] | < 75 | > 150
C[C@H]1C[C@@H](NC(=O)[C@H](O)CO)CN(c2ccc(C#N)c3nccnc23)C1 [Example 160, (R)—N-[(3R,5S)-1-(8-Cyano-quinoxalin-5-yl)-5-methyl-piperidin-3-yl]-2,3-dihydroxy-propionamide] | < 75 | < 75
C[C@H]1C[C@@H](NC(=O)[C@@H](O)C(C)(C)O)CN(c2ccc(C#N)c3nccnc23)C1 [Example 161, (S)—N-[(3R,5S)-1-(8-Cyano-quinoxalin-5-yl)-5-methyl-piperidin-3-yl]-2,3-dihydroxy-3-methyl-butyramide] | < 75 | < 75
C[C@H]1C[C@@H](NC(=O)[C@H](O)C(C)(C)O)CN(c2ccc(C#N)c3nccnc23)C1 [Example 162, (R)—N-[(3R,5S)-1-(8-Cyano-quinoxalin-5-yl)-5-methyl-piperidin-3-yl]-2,3-dihydroxy-3-methyl-butyramide] | > 150 | 75 to 150
C[C@H]1C[C@@H](NC(=O)[C@@H](N)C(C)(C)O)CN(c2ccc(C#N)c3nccnc23)C1 [Example 173, (S)-2-Amino-N-[(3R,5S)-1-(8-cyano-quinoxalin-5-yl)-5-methyl-piperidin-3-yl]-3-hydroxy-3-methyl-butyramide] | < 75 | < 75
C[C@H]1C[C@@H](NC(=O)[C@H]2CCCN2)CN(c2ccc(C#N)c3nccnc23)C1 [Example 174, (R)-Pyrrolidine-2-carboxylic acid [(3R,5S)-1-(8-cyano-quinoxalin-5-yl)-5-methyl-piperidin-3-yl]-amide] | 75 to 150 | > 150
C[C@H]1C[C@@H](NC(=O)[C@@H]2CCCN2)CN(c2ccc(C#N)c3nccnc23)C1 [Example 175, (S)-Pyrrolidine-2-carboxylic acid [(3R,5S)-1-(8-cyano-quinoxalin-5-yl)-5-methyl-piperidin-3-yl]-amide] | < 75 | 75 to 150
